# In the NIST ThermoML archive (doi:10.1016/j.fluid.2014.03.003):
# Numbers after ± are expanded uncertainties.
# Conditions: Liquid, Closed cell (Static) method
Structure (SMILES),vapor or sublimation pressure (313.15 K),vapor or sublimation pressure (323.15 K),vapor or sublimation pressure (333.15 K),vapor or sublimation pressure (343.15 K),vapor or sublimation pressure (353.15 K),vapor or sublimation pressure (363.15 K),vapor or sublimation pressure (373.15 K),vapor or sublimation pressure (378.15 K),vapor or sublimation pressure (383.15 K),vapor or sublimation pressure (393.15 K),vapor or sublimation pressure (403.15 K),vapor or sublimation pressure (308.15 K),vapor or sublimation pressure (318.15 K),vapor or sublimation pressure (328.15 K),vapor or sublimation pressure (338.15 K),vapor or sublimation pressure (303.15 K),vapor or sublimation pressure (358.15 K),vapor or sublimation pressure (348.15 K),vapor or sublimation pressure (368.15 K),other results
"Cc1ccccc1C [1,2-dimethylbenzene]",2.052 ± 0.035 kPa,3.456 ± 0.022 kPa,5.613 ± 0.047 kPa,8.542 ± 0.051 kPa,12.73 ± 0.04 kPa,18.65 ± 0.057 kPa,26.73 ± 0.076 kPa,31.66 ± 0.091 kPa,37.35 ± 0.1 kPa,51.01 ± 0.14 kPa,68.42 ± 0.18 kPa,–,–,–,–,–,–,–,–,vapor or sublimation pressure (388.15 K): 43.63 ± 0.12 kPa; vapor or sublimation pressure (413.15 K): 90.18 ± 0.24 kPa
"Cc1cccc(C)c1 [1,3-dimethylbenzene]",3.524 ± 0.028 kPa,5.37 ± 0.045 kPa,7.75 ± 0.038 kPa,11.12 ± 0.036 kPa,15.97 ± 0.048 kPa,22.76 ± 0.058 kPa,32.06 ± 0.079 kPa,–,44.23 ± 0.11 kPa,–,80.2 ± 0.16 kPa,2.631 ± 0.045 kPa,4.372 ± 0.036 kPa,6.496 ± 0.037 kPa,9.305 ± 0.035 kPa,–,–,–,–,–
"Cc1ccc(C)cc1 [1,4-dimethylbenzene]",2.49 ± 0.039 kPa,4.422 ± 0.042 kPa,6.997 ± 0.048 kPa,10.63 ± 0.057 kPa,15.72 ± 0.085 kPa,22.8 ± 0.091 kPa,32.04 ± 0.12 kPa,–,44.56 ± 0.16 kPa,60.79 ± 0.22 kPa,80.87 ± 0.28 kPa,–,–,–,–,1.562 ± 0.031 kPa,19.04 ± 0.085 kPa,–,–,vapor or sublimation pressure (408.15 K): 92.43 ± 0.32 kPa
c1ccccc1 [benzene],24.3 ± 0.052 kPa,36.09 ± 0.069 kPa,52.11 ± 0.11 kPa,73.35 ± 0.13 kPa,100.91 ± 0.17 kPa,–,–,–,–,–,–,19.71 ± 0.05 kPa,29.73 ± 0.063 kPa,43.51 ± 0.082 kPa,62.01 ± 0.11 kPa,15.85 ± 0.035 kPa,–,86.27 ± 0.15 kPa,–,vapor or sublimation pressure (293.15 K): 9.983 ± 0.027 kPa; vapor or sublimation pressure (298.15 K): 12.64 ± 0.037 kPa
CCc1ccccc1 [ethylbenzene],–,4.712 ± 0.029 kPa,7.448 ± 0.031 kPa,11.41 ± 0.032 kPa,–,–,–,–,47.75 ± 0.1 kPa,–,85.64 ± 0.17 kPa,2.223 ± 0.019 kPa,3.746 ± 0.041 kPa,5.967 ± 0.03 kPa,9.251 ± 0.028 kPa,–,20.42 ± 0.06 kPa,13.79 ± 0.04 kPa,29.11 ± 0.073 kPa,–
Cc1ccccc1 [toluene],7.963 ± 0.026 kPa,12.31 ± 0.032 kPa,18.86 ± 0.057 kPa,27.31 ± 0.059 kPa,–,–,–,86.25 ± 0.16 kPa,–,–,–,6.257 ± 0.024 kPa,9.959 ± 0.034 kPa,15.14 ± 0.041 kPa,22.61 ± 0.05 kPa,4.905 ± 0.022 kPa,46.17 ± 0.091 kPa,32.72 ± 0.071 kPa,63.84 ± 0.12 kPa,–
